Measurements as given in patent publication US9237750B2, “Ornidazole and related compounds for use as herbicides” (RAMOT AT TEL-AVIV UNIVERSITY LTD., priority 2012, dated 2016).

What was measured:
Lemna = assay: PAM fluorescence parameters of aquatic plant; format: in vivo; details: 1 mM Ornidazole in growth medium; actinic light 210 μmol photons×m^−2×sec^−1
Description: The fluorescence under dim (3 μmol photons×m^−2×sec^−1) and saturating (2000 μmol photons×m^−2×sec^−1, 0.8 sec) flash light (Fo and Fmax, respectively) of pre-darkened plants was determined in the presence or absence of 1 mM Ornidazole in the growth medium, using a PAM fluorimeter. Quantum yield and non-photochemical quenching (qN) were determined with saturating flashes under actinic light (210 μmol photons×m^−2×sec^−1).
The rate of net O2 exchange was determined using a Clark-type O2 electrode (Rank Brothers Ltd, UK). Fluorescent measurements (quantum yield, photochemical and non photochemical quenching) were determined using a modulated fluorometer (PAM, Walz, Germany) as described by Schreiber et al. (Schreiber U et al., 1986. fluorometer. Photosynth Res 10, 51-62) and Snir et al. (Snir A, et al., 2006. Photosynth Res 90, 233-242).
The effect of Ornidazole on photosynthesis was further examined in the aquatic plant Lemna. Lemna plants were collected from a pond at the Botanical garden of Tel Aviv University and kept in the pond water as a growth medium. The fluorescence under dim (3 μmol photons m^−2 sec^−1) and saturating (2000 μmol photons m^−2 sec^−1, 0.8 sec) flash light (Fo and Fmax, respectively) of pre-darkened plants was determined in the presence or absence of 1 mM Ornidazole in the growth medium, using a PAM fluorimeter (H. Walz, Germany). […]

[1] = molecular target: T1, Triose phosphate isomerase (Nostoc sp., UniProt Q8YP17); assay: Calvin cycle enzyme activity; format: biochemical, Anabaena; parameters: endogenous in cells; host or cells: Anabaena PCC7120 extract; details: 1 mM Ornidazole
T1 sequence (Q8YP17 1-241): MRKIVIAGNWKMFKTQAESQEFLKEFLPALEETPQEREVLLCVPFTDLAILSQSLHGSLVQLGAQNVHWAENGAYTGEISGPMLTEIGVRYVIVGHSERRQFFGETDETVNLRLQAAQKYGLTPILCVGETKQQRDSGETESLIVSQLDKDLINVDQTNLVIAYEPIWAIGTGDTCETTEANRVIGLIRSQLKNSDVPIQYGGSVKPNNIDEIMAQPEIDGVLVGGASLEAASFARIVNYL
Description: Rubisco was assayed as described by Marcus et al. (2005, ibid) and Snir et al. (2006, ibid). Phospho-ribulose kinase was assayed by conversion of phospho-ribulose to RuBP, which was determined by Rubisco dependent carboxylation with radiolabeled ^14CO2. Plant or cyanobacterial extract was incubated with medium containing 50 mM Hepes pH 8, 10 mM MgCl2, 20 mM NaH^14CO3, 1 mM DTT, 0.5 mM ribose-5-phosphate, ribose-5-phosphate isomerase and activated Rubisco. Phosphoglycerate kinase, GAPDH, FBPase and SBPase were determined as described by Leegood (Leegood R C., 1990. In: Methods in plant biochemistry, Vol 3, pp 15-37, Academic Press).
However, analysis of Ornidazole effect on various enzymes of the Calvin cycle in Anabaena including ribulose-bisphosphate carboxylase/oxygenase (Rubisco), phosphoglycerate kinase, glyceraldehyde-3-phosphate dehydrogenase (GAPDH), triose-phosphate isomerase, aldolase, fructose and sedoheptulose bisphosphatase and phosphoribulose kinase, has shown inhibition of GAPDH and triose-phosphate isomerase (Table 2).

Structure (SMILES): Cc1ncc([N+](=O)[O-])n1CC(O)CCl (stereo not shown) [Ornidazole, 1-chloro-3-(2-methyl-5-nitro-1H-imidazol-1-yl)propan-2-ol]
- non-photochemical quenching (Lemna): increased
- photosynthetic quantum yield (Lemna): decreased significantly
- Activity ([1]; Triose phosphate isomerase): 0 μmol × mg^−1chl × h^−1
- inhibition at 1000 µM ([1]; triose-phosphate isomerase): 98 to 100%
